Measured values as given in US9097673B2, “Processes and kits for determining multi-drug resistance of cells” (ENZO LIFE SCIENCES, INC., priority 2010, dated 2015).

How the values were obtained:
Hep G2 cells = assay: Dye uptake flow cytometry MDR assay; format: cell-based, human; design: key: Kolmogorov-Smirnov D statistic comparing fluorescence distributions; conditions: HepG2, dye uptake
Method: (§1) Cells were grown on tissue culture dishes and on the day of assay were trypsinized and washed twice with warm (37° C.) phosphate-buffered saline (PBS). Post-wash, the cells were re-suspended in warm phenol red indicator-free medium at a density of 1×10^6/ml. For each detection set, sixteen tubes (5 samples in triplicates plus non-stained control for background fluorescence) in numbered tubes each containing 5×10^5/cells (0.5 ml) were prepared. […] After incubation for 5 min at 37° C., 0.25 ml of warm medium with Fluo-8™ AM probe (5 μM final concentration) or Rhod-4™ AM probe (2 μM final concentration) was added to each tube excluding non-stained control that receives plain medium and cells were incubated for 30 min at 37° C. and analyzed immediately by flow cytometry. In the second set of the tubes, the reaction was stopped by rapid centrifugation (1 min) at relatively low speed (200×g). After wash with ice-cold PBS and discarding the supernatant, cells were re-suspended in 0.5 ml of ice-cold medium and kept on ice until flow cytometry analysis. The third set of cells simply was spun down (1 min, 200×g) to remove the excess of the probe, resuspended in ice-cold medium and kept on ice until flow cytometry analysis.
(§2) Flow cytometry experiments were performed using a FACS Calibur benchtop flow cytometer (BD Biosciences) equipped with a blue (488 nm) laser, and the signals were registered in the FITC (530/30 filter), PE (585/42 filter) and PerCP (670 LP filter) channels. Fluo-8™ dye fluorescence was measured in the FL1 channel, and Rhod-4™ dye fluorescence—in the FL2 channel. Flow cytometry data were analyzed by comparison of median fluorescence or using Kolmogorov-Smirnov statistics [Young, J Histochem Cytochem 25:935-941 (1977)] or by calculating MAF values (MDR Activity Factor) using the following formula: MAF=100*((MFIinh−MFI0)/MFIinh), where MFIinh and MFI0 are mean fluorescence intensity values measured in the presence and absence of inhibitor [Hollo et al., Biochem Piophys Acta. 1191:384-388 (1994)].
(§3) Both human ileocecal colorectal carcinoma cell line HCT-8 (reported to over-express P-gp and, to a lesser extent, MRP [Hunter et al., Br J Cancer. 64:437-444 (1991); Collington et al., Biochem Pharmacol 44:417-424 (1992)] and hepatocellular carcinoma Hep G2 (reported to over-express MRP [Roelofsen et al., Gastroenterology 112:511-521 (1997), Cantz et al., Am J Physiol Gastrointest Liver Physiol. 278:G522-G531 (2000)] were obtained from ATCC. HCT-8 cells were routinely cultured in RPMI-1640 Medium with 2 mM L-glutamine, 10 mM HEPES, 1 mM sodium piruvate, 4.5 g/L glucose, 1.5 g/L sodium bicarbonate (ATCC), supplemented with 10% horse serum (ATCC) and 100 U/ml penicillin, 100 ug/ml streptomycin (Sigma-Aldrich, St. Louis, Mo.). Hep G2 cells were routinely cultured in Eagle's Minimum Essential Medium with low glucose (ATCC), supplemented with 10% heat inactivated fetal bovine serum (ATCC) and 100 U/ml penicillin, 100 ug/ml streptomycin (Sigma-Aldrich, St. Louis, Mo.). Cell cultures were maintained in a humidified incubator at 37° C., with 5% CO2 atmosphere. Stock solutions of the probes and inhibitors were prepared, as described in Examples 2 and 3. Cells were grown in tissue culture dishes and on the day of assay were treated according to a dye uptake protocol and analyzed by flow cytometry, as described in Example 3.

HCT-8 cells = assay: Dye uptake flow cytometry MDR assay; format: cell-based, human; design: key: Kolmogorov-Smirnov D statistic comparing fluorescence distributions; conditions: HCT-8, dye uptake
Method: as §1, §2, §3

CHO K1 cell line = assay: Dye efflux flow cytometry MDR assay; format: cell-based, hamster; design: key to D-value, Verapamil / D-value, Novobiocin: KS D value, 0 to 1; negative if control brighter than sample; conditions: for D-value, +4° C.: kept on ice without inhibitor
Description: Kolmogorov-Smirnov statistics measures the difference between two distribution functions and generates a D value ranging between 0 and 1.0, with higher values indicating a greater difference between the distribution functions. The D value generated by the KS statistics was modified by ascribing a negative value if the fluorescence of a negative control (no inhibitor) was brighter than the fluorescence of the sample with inhibitor. The method was one of those recommended by the First International MDR1 Methods Detection Workshop (St. Jude Children's Research Hospital, Memphis, Tenn.).
Cells were grown in tissue culture dishes and on the day of assay they were trypsinized and washed twice with ice-cold PBS. Post-wash, the cells were re-suspended in cold phenol red indicator-free medium at a density of 1×10^6/ml. For each detection set, eighteen tubes (6 tubes without inhibitor and 3 tubes for each inhibitor tested, in triplicates) each containing 2.5-5×10^5/cells were prepared. Cells were centrifuged at 200×g for 5 min, and after discarding supernatant, re-suspended at 1×10^6/ml in ice-cold indicator-free medium containing Fluo-8™ AM or Rhod-4™ AM probes. Additionally, an aliquot of non-stained cells was prepared for background fluorescence measurements. Cells were incubated with the probe(s) on ice for 60 min, than centrifuged at 200×g for 5 min. After discarding the supernatant, cells were either washed twice with PBS or simply were spun down to remove the excess of the probe and resuspended at 5×10^5 cells/sample in 0.5 ml of following solutions:
1. warm (37° C.) indicator-free medium containing vehicle only (3 tubes)
2. warm (37° C.) indicator-free medium containing inhibitor (3 tubes for each inhibitor tested)
3. ice-cold indicator-free medium (3 tubes)
Tube sets 1 and 2 were immediately transferred to a water bath (37° C.) and incubated for 90 min. Tube set 3 was kept on ice. Post incubation, 4 ml of ice-cold indicator-free medium was added per tube, tubes were centrifuged at 200×g for 5 min, supernatant was discarded, and cell pellet was re-suspended in the cold indicator-free medium and centrifuged again. Finally, cells were re-suspended in 0.5 ml of cold indicator-free medium and maintained on ice until analysis. Alternatively, cells were analyzed without washing. Flow cytometry experiments were performed as described in Example 3.

[1] = CHO K1, dye efflux, representative experiment (Table 9)
[2] = Fluo-8 AM probe, dye efflux, CHO K1, No Wash
[3] = Fluo-8 AM probe, dye efflux, CHO K1, Wash

`CC(=O)OCOC(=O)CN(CC(=O)OCOC(C)=O)c1ccccc1OCCOc1cc(-c2c3ccc(=O)cc-3oc3cc(OCOC(C)=O)ccc23)ccc1N(CC(=O)OCOC(C)=O)CC(=O)OCOC(C)=O` [Fluo-8 ™ AM] was tested, and the “D-value, CyclosporinA” value (Hep G2 cells) was 0.28, the “D-value, MK-571” value (Hep G2 cells) was 0.34 and the “D-value, Novobiocin” value (Hep G2 cells) was 0.13. The “D-value, Verapamil” value (Hep G2 cells) was 0, the “D-value, CyclosporinA” value (HCT-8 cells) was 0.68 and the “D-value, MK-571” value (HCT-8 cells) was 0.34. The “D-value, Novobiocin” value (HCT-8 cells) was 0.22, the “D-value, Verapamil” value (HCT-8 cells) was 0.71 and the “D-value, 4° C.” value (CHO K1 cell line; CHO K1, dye efflux, kept on ice without inhibitor (Table 9)) was 0.72. For the same compound, the “D-value, Cyclosporine A” value (CHO K1 cell line; [1]) was 0.55, the “D-value, Novobiocin” value (CHO K1 cell line; [1]) was 0.70 and the “D-value, Probenecid” value (CHO K1 cell line; [1]) was 0.30. The “D-value, Verapamil” value (CHO K1 cell line; [1]) was 0.28, the “D-value, Cyclosporin A” value (CHO K1 cell line; [2]) was 0.8 and the “D-value, Novobiocin” value (CHO K1 cell line; [2]) was 0.7. The “D-value, Probenecid” value (CHO K1 cell line; [2]) was 0.19, the “D-value, Verapamil” value (CHO K1 cell line; [2]) was 0.21 and the “D-value, +4° C.” value (CHO K1 cell line; [2]) was 0.78. For the same compound, the “D-value, Cyclosporin A” value (CHO K1 cell line; [3]) was 0.62, the “D-value, Novobiocin” value (CHO K1 cell line; [3]) was 0.79 and the “D-value, Probenecid” value (CHO K1 cell line; [3]) was 0.23. The “D-value, Verapamil” value (CHO K1 cell line; [3]) was 0.34 and the “D-value, +4° C.” value (CHO K1 cell line; [3]) was 0.76.
